Laboratory results from patent US10695315B2, “Composition comprising avermectin compounds without gelling agents” (Nestlé Skin Health SA, priority 2016, dated 2020).

Assay: Physical stability of the composition over time
Type: physicochemical
Details: in composition 2, over time (three months, 5° C. and RT)
Protocol: “Physical stability” means that the composition meets the acceptance criteria for appearance, physical attributes and functionality test (e.g. color, phase separation, dose delivery per actuation).
The table below represents physical stability of the composition 2 according to the invention at 5° C. and room temperature (RT) during three months.

Substance: ivermectin
- Ivermectin solubilized state, crystals formation: remains solubilized over time, no crystals formation
